Entries after “also recorded” stand apart in the source; their conditions may differ.
Columns and labels:
Type in all cases: physicochemical
[1] = Slurry competition (interconversion) studies between Forms I and IV in heptane; conditions: mixture of Form I and Form IV, pre-saturated heptane, 7 d
Procedure: Interconversion slurries were conducted in heptane at RT, −20° C., and 40° C. as in Table 12. In these slurries, the heptane was pre-saturated with N,N-DMT using Form IV solids at the stated temperature, and a portion of the liquid phase was filtered into a mixture of Form I and Form IV solids.

[2] = Aqueous solubility by solvent addition, visual assessment; conditions: water, calculated from total solvent used
[3] = Hygroscopicity by dynamic vapor sorption (DVS)
[4] = Stable form screen slurries, form by XRPD; conditions: for Relative thermodynamic stability of the polymorph (conclusion from slurries): slurries at RT, 40° C., about 2 weeks
Procedure: Slurrying: Suspensions were prepared by adding enough solids to a given solvent at the stated conditions so that undissolved solids were present. The mixture was then agitated (typically by stirring or oscillation) in a sealed vial at a given temperature for an extended period of time.
Slurry experiments were conducted to determine the relative stability of Forms I, III, and IV. The screening conditions are tabulated at Tables 9-11.
In these experiments, saturated solutions containing excess undissolved solids were stirred for extended durations. […] Slurries were conducted RT, 40° C., 5° C., and −20° C. for approximately 2 weeks.

[5] = Solid state heating experiments, form conversion
[6] = Thermogravimetric analysis (TGA), decomposition; conditions: 25 to 350° C. at 10° C./min under nitrogen
Procedure: TGA or TGA/DSC analyses were performed using a Mettler-Toledo TGA/DSC3+ analyzer. Temperature and enthalpy adjustments were performed using indium, tin, zinc, and phenyl salicylate, and then verified with indium. The balance was verified with calcium oxalate. The sample was placed in an aluminum pan. The pan was hermetically sealed, the lid pierced, and the pan was then inserted into the TG furnace. A weighed aluminum pan configured as the sample pan was placed on the reference platform. The furnace was heated under nitrogen. Samples were analyzed from 25° C. to 350° C. at 10° C./min. Thermogravimetric analyses typically experience a period of equilibration at the start of each analysis, indicated by parentheses on the thermograms in the Figures section (V). The starting temperature for relevant weight loss calculations is selected at a point beyond this region (typically above 35° C.) for accuracy.

[7] = Cycling DSC of amorphous N,N-DMT prepared in situ (glass transition)
Procedure: A cycling DSC experiment was performed to investigate a potential glass transition temperature by preparing amorphous solids in situ, starting with Form IV.
At the start of the experiment, Form IV solids were heated past the melt (to 80° C.) and held for 10 minutes. The melted material was quickly cooled to −80° C., then reheated to 200° C. A glass transition (Tg) is observed as a step in the green curve at −18° ° C. Amorphous materials tend to spontaneously crystallize at temperatures above the Tg.

SMILES: CN(C)CCc1c[nH]c2ccccc12 [Form I and Form IV, N,N-dimethyltryptamine]
- XRPD Result after competition slurry ([1]; 40° C.): Form IV
- XRPD Result after competition slurry ([1]; RT): Form IV
- XRPD Result after competition slurry ([1]; −20° C.): Form IV

SMILES: CN(C)CCc1c[nH]c2ccccc12 [Form I, N,N-dimethyltryptamine]
- solubility ([2]; thermodynamic from solid): < 1000 µg/mL
- Hygroscopicity [DVS], water uptake ([3]; at 60% RH): 0.04 wt % water at
- Hygroscopicity [DVS], water uptake ([3]; at 90% RH): 60% RH and 0.18%
- Form after DVS cycle and drying ([3]; post-DVS solids dried at 60° C.): form change; also recorded: recrystallized upon cooling to ambient temperature to lower-melting Form III
- XRPD Result after slurry ([4]; start Form I, EtOAc/cyclohexane (5:95), attempted slurry, RT, 13 d): Form I
- XRPD Result after slurry ([4]; start Form I, IPA/water (10:90), 5° C., 13 d): Form I
- XRPD Result after slurry ([4]; start Form I, THF/water (5:95), attempted slurry, RT, 13 d): Form IV
- XRPD Result after slurry ([4]; start Form I, acetone/water (10:90), 5° C., 13 d): Form IV
- XRPD Result after slurry ([4]; start Form I, cyclohexane, RT, 13 d): Form I
- XRPD Result after slurry ([4]; start Form I, heptane, RT, 13 d): Form I
- XRPD Result after slurry ([4]; start Form I, heptane, −20° C., 17 d): Form I

SMILES: CN(C)CCc1c[nH]c2ccccc12 [Form III, N,N-dimethyltryptamine]
- Form conversion on solid state heating ([5]; held between 35° C. and 40° C.): concurrently melt and recrystallize to Form IV
- Relative thermodynamic stability of the polymorph (conclusion from slurries) ([4]; 5° C., −20° C.): metastable across all temperatures; also recorded: metastable at all conditions tested
- XRPD Result after slurry ([4]; start Form III, EtOAc/heptane (5:95), −20° C., 15 d): Form I
- XRPD Result after slurry ([4]; start Form III, IPAc/heptane (3:97), RT, 13 d): Form IV
- XRPD Result after slurry ([4]; start Form III, MeOH/water (20:80), 5° C., 15 d, sample oily before analysis): amorphous
- XRPD Result after slurry ([4]; start Form III, heptane, RT, 15 d): Form I
- Decomposition (steep drop in TGA thermogram) begins above [6]: > 240 °C

SMILES: CN(C)CCc1c[nH]c2ccccc12 [Form IV, N,N-dimethyltryptamine]
- Aqueous solubility [2]: (<1) mg/mL
- Form change on solid state heating ([5]; heating at 50° C. for 10 minutes): no changes
- Relative thermodynamic stability of the polymorph (conclusion from slurries) ([4]; 5° C., −20° C.): most thermodynamically stable polymorph; also recorded: remained unchanged upon slurrying in various solvent systems; also recorded: most thermodynamically stable form
- XRPD Result after slurry ([4]; start Form IV, EtOAc/heptane (5:95), −20° C., 13 d): Form IV
- XRPD Result after slurry ([4]; start Form IV, MeOH/water (20:80), 5° C., 13 d): Form IV
- XRPD Result after slurry ([4]; start Form IV, acetone/water (10:90), RT, 13 d): Form IV
- XRPD Result after slurry ([4]; start Form IV, heptane, RT, 13 d): Form IV
- Decomposition (steep drop in TGA thermogram) begins above [6]: > 240 °C

SMILES: CN(C)CCc1c[nH]c2ccccc12 [amorphous N,N-DMT, N,N-dimethyltryptamine]
- Glass transition (Tg) ([7]; Form IV melted at 80° C., 10 min, cooled to −80° C., reheated to 200° C.): −18 °C
- Physical stability of amorphous material ([7]; heating/melting experiments, −20° C. to 40° C., above Tg): readily crystallize; also recorded: poor physical stability
